Laboratory results reported in US5296591A, “Trifluoromethylketone derivatives, processes for preparation thereof and use thereof” (Fujisawa Pharmaceutical Co., Ltd., priority 1990, dated 1994).
Read-outs that look alike come from different tables or passages of the source.

Experiments:
[1] = target: T1, human sputum elastase (HSE) (Homo sapiens, UniProt P08246); test: Protease inhibition assay (in vitro), human sputum elastase; type: biochemical; details: substrate methoxysuccinyl-(Ala)2-Pro-Val-p-nitroanilide, 30 min, room temperature, pH 7.5
T1 construct: HSE was obtained from Elastin Products Company Inc., Mo., U.S.A; purchased Elastin Products Company Inc; host or cells: human sputum (from the enzyme's name)
T1 sequence (P08246 30-267): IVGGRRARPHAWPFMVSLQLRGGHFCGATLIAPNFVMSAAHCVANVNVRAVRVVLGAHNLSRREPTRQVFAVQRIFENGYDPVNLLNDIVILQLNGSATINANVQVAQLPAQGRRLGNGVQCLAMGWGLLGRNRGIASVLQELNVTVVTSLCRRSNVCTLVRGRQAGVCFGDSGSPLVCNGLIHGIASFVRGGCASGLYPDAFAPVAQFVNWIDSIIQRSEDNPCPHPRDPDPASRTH
Protocol: (§1) A buffer used throughout the assay was 0.1M HEPES (4-(2-hydroxyethyl)-1-piperazineethanesulfonic acid) containing 0.5M NaCl, pH 7.5. Twenty-five microliters of 2 mM methoxysuccinyl-(Ala)2 -Pro-Val-p-nitroanilide (100 mM of dimethyl sulfoxide solution were diluted in the buffer) and 50 μl of sample (10 μl of sample in organic solvent was diluted 5-fold in the buffer) were mixed in wells of 96 well-microliter plate. An absorbance of the mixture in wavelength at 415 nm was measured by a microplate reader (Corona Electric Co., Ibaraki, Japan). After the measurement, 25 μl of 6 μg/ml human sputum elastase (HSE) was added and the mixture was allowed to stand for 30 minutes at room temperature. Then, the absorbance at 415 nm was measured. Percent inhibition by drug was determined by 100×(1-"r" inhibitor present/"r" inhibitor absent), where "r" is absorbance after 30 minutes incubation minus absorbance before enzyme addition. Effect of inhibitors against porcine pancreas elastase (Type IV, 5 μg/ml final) was assayed similarly using N-succinyl-(Ala)3 -p-nitroanilide. HSE was obtained from Elastin Products Company Inc., Mo., U.S.A. All other substrates and protease were purchased from Sigma Chemicals Co.

[2] = target: T2, porcine pancreas elastase (Type IV) (Sus scrofa, UniProt P00772); test: Protease inhibition assay (in vitro), porcine pancreas elastase; type: biochemical; details: substrate N-succinyl-(Ala)3-p-nitroanilide, enzyme 5 μg/ml final
T2 construct: purchased Sigma Chemicals Co; host or cells: porcine pancreas (from the enzyme's name)
Protocol: as §1

[3] = tested on: human sputum elastase-induced lung hemorrhage in hamsters; test: Elastase-induced pulmonary damage (lung hemorrhage) in hamsters; type: in vivo, hamster; details: 5 min predose; for Hemorrhage (OD541 nm): BAL hemoglobin 3 h after elastase; for ED50 elastase-induced lung hemorrhage: intratracheal
Protocol: Hamsters under pentobarbital anesthesia were used. Saline or saline-containing human sputum elastase was instilled intratracheally via a small incision in the ventral neck region using 1-ml syringe with a 27-gauge needle. After 3 hours, animals were sacrificed by CO2 asphyxiation, each animal's trachea was reexposed. The lungs were then laveged using a 2.5-ml aliquot of saline and then withdrawing the saline, yielding a final volume of approximately 1.5 ml bronchoalveolar lavage (BAC) fluid from each animal.
The cells of BAL fluid were collected by centrifugation and were then diluted with distilled water to disrupt, and the hemoglobin contents determined spectrophotometrically at 541 nm.
Test drugs were dissolved in saline or methyl cellulose, and instilled intratracheally in the same manner as used to instill elastase, at 5 minutes before instillation of elastase.

[4] = tested on: human sputum elastase induced paw edema in C57BL mice; test: Human sputum elastase induced paw edema in mice; type: in vivo, mouse; details: for Thickness of footpad: 15 min before HSE 20 μg/site, 2 h after HSE
Protocol: Male C57BL mice at the age of 7-8 weeks were obtained from Japan Clear Inc,.
Human sputum elastase (HSE) was purchased from Elastin Products Company, Inc,. The test drug was administered subcutaneously, and 15 minutes later, HSE was injected into the right hind footpad at the dosage of 20 μg/site, and saline into the left hind footpad as the control. After 2 hours of HSE injection, the paw edema was measured with the dial thickness gage, and the difference of the thickness between right and left hind footpads was calculated.

[5] = tested on: PPE-induced emphysema in golden Syrian hamsters; test: Experimentally (porcine pancreatic elastase) induced emphysema in hamsters; type: in vivo, hamster; details: for Cst (quasi static lung compliance) / VC (vital capacity): 3 weeks after PPE
Protocol: Male golden Syrian hamsters, weighing approximately 120 g, were obtained from Japan SLC Inc,.
Porcine pancreatic elastase (PPE) was purchased from Elastin Products Company, Inc,. Dialferin was purchased from Japan Roche Inc,.
Hamsters were anesthetized intraperitoneally with Pentobarbital. The compound of Example 19 was dissolved in saline. Both prior art compounds A and B were suspended in 0.5% methyl cellulose. The drugs were instilled intratracheally through the oral cavity, 5 minutes before 100 μg/site of PPE in 0.2 ml of saline instillation. Three weeks after PPE instillation, the hamsters were anesthetized with Pentobarbital. Respiratory mechanics were studied in supine hamsters using a whole body, constant-volume, variable pressure plethysmograph to measue volume. A water-filled esophageal catheter was used to estimate pleural pressure. Quasi-static deflation pressure-volume (P-V) curves were obtained by intraperitoneally administered Dialferin to suppress spontaneous breathing inflating the lungs to a transpulmonary pressure (PL) of 30 cm H2 O, permitting slow deflation to a PL of 0 cm H2 O and gently aspirating to a PL of -20 cm H2 O . Quasi-static lung compliance (Cst) was defined as the slope of the steep portion of the deflation P-V curve in the mid-volume range. Vital capacity was defined as the difference in lung volume between TLC25 (volume at PL=25 cm H2 O) and RV-20 (volume at PL=-20 cm H2 O).

[6] = 1 μg/site intratracheal 5 min before PPE 100 μg/site
[7] = 10 μg/site intratracheal 5 min before PPE 100 μg/site
[8] = 100 μg/site intratracheal 5 min before PPE 100 μg/site
[9] = read-out: IC50 Porcine pancreas elastase

T2 sequence (P00772 27-266): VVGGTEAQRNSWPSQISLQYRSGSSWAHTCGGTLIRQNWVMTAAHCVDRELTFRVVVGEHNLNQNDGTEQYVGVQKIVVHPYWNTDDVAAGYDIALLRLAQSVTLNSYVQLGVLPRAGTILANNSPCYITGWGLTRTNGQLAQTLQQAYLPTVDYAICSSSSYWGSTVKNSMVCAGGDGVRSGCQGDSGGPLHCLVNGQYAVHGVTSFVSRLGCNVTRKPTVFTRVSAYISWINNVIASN

## CC(C)C(NC(=O)[C@@H]1CCCN1C(=O)[C@@H](NC(=O)c1ccc(C(=O)NCC(=O)O)cc1)C(C)C)C(=O)C(F)(F)F (mixture of isomers) [Example 13, 3(RS)-[[4-(carboxymethylaminocarbonyl)phenylcarbonyl]-L-valyl-L-prolyl]amino-1,1,1-trifluoro-4-methyl-2-oxopentane]
[1]
  IC50: 720 nM
[2]; IC50 Porcine pancreas elastase
  IC50: 3300 nM
[3]; 1 μg/site intratracheal
  % inhibition of elastase-induced lung hemorrhage: 21.6%
  Hemorrhage (OD541 nm): 11.63 ± 1.99 OD541 nm
[3]; 10 μg/site intratracheal
  % inhibition of elastase-induced lung hemorrhage: 74.5%
  Hemorrhage (OD541 nm): 4.217 ± 1.02 OD541 nm
[3]; 100 μg/site intratracheal
  % inhibition of elastase-induced lung hemorrhage: 100.0%
  Hemorrhage (OD541 nm): 0.6384 ± 0.222 OD541 nm
[3]
  ED50 elastase-induced lung hemorrhage: 3.0 μg/site

## CC(C)C(NC(=O)[C@@H]1CCCN1C(=O)[C@@H](NC(=O)c1ccc(C(=O)NCC(=O)O)cc1)C(C)C)C(=O)C(F)(F)F (mixture of isomers) [Example 19, 3(RS)-[[4-(carboxymethylaminocarbonyl)phenylcarbonyl]-L-valyl-L-prolyl]amino-1,1,1-trifluoro-4-methyl-2-oxopentane]
[1]
  IC50: 680 nM
[2]; IC50 Porcine pancreas elastase
  IC50: 3000 nM
[3]; 1 μg/site intratracheal
  % inhibition of elastase-induced lung hemorrhage: 10.8%
  Hemorrhage (OD541 nm): 11.59 ± 1.40 OD541 nm
[3]; 10 μg/site intratracheal
  % inhibition of elastase-induced lung hemorrhage: 93.1%
  Hemorrhage (OD541 nm): 1.663 ± 0.690 OD541 nm
[3]; 100 μg/site intratracheal
  % inhibition of elastase-induced lung hemorrhage: 105.2%
  Hemorrhage (OD541 nm): 0.2141 ± 0.020 OD541 nm
[3]
  ED50 elastase-induced lung hemorrhage: 2.4 μg/site
[4]; 1 mg/kg subcutaneous
  % Inhibition of paw edema: 6.4%
  Thickness of footpad: 43.8 ± 5.67 × 10^-2 mm
[4]; 10 mg/kg subcutaneous
  % Inhibition of paw edema: 20.9%
  Thickness of footpad: 37.0 ± 13.41 × 10^-2 mm
[4]; 100 mg/kg subcutaneous
  % Inhibition of paw edema: 42.3%
  Thickness of footpad: 27.0 ± 4.66 × 10^-2 mm
[5]; 1 μg/site intratracheal
  Cst (%) Inhibition: 15%
  VC (%) Inhibition: 12%
[5]; [6]
  Cst (quasi static lung compliance): 1.39 ± 0.05 ml/cmH2 O
  VC (vital capacity): 7.0 ± 0.1 mL
[5]; 10 μg/site intratracheal
  Cst (%) Inhibition: 84%
  VC (%) Inhibition: 65%
[5]; [7]
  Cst (quasi static lung compliance): 0.70 ± 0.04 ml/cmH2 O
  VC (vital capacity): 5.8 ± 0.1 mL
[5]; 100 μg/site intratracheal
  Cst (%) Inhibition: 100%
  VC (%) Inhibition: 97%
[5]; [8]
  Cst (quasi static lung compliance): 0.53 ± 0.02 ml/cmH2 O
  VC (vital capacity): 5.0 ± 0.1 mL
[5]; hamster, in vivo
  Potency compared with prior art compounds, considering Cst and VC values (in words): superior to the prior art compounds A and B
[5]; intratracheal pretreatment, 1-100 μg/site
  Effect of pretreatment on PPE-induced increases in lung mechanics (in words): prevented the development of PPE-induced increases in lung mechanics in a dose dependent manner

## CC(C)C(NC(=O)[C@@H]1CCCN1C(=O)[C@@H](NC(=O)c1ccc(C(=O)NCCN2CCOCC2)cc1)C(C)C)C(=O)C(F)(F)F.Cl (mixture of isomers) [Example 21, 3(RS)-[[4-[[2-(4-morpholino)ethyl]aminocarbonyl]phenylcarbonyl]-L-valyl-L-prolyl]amino-1,1,1-trifluoro-4-methyl-2-oxopentane hydrochloride]
[1]
  IC50: 1200 nM
[2]; [9]
  IC50: 3700 nM
[3]; 1 μg/site intratracheal
  % inhibition of elastase-induced lung hemorrhage: 13.6%
  Hemorrhage (OD541 nm): 12.76 ± 1.11 OD541 nm
[3]; 10 μg/site intratracheal
  % inhibition of elastase-induced lung hemorrhage: 66.3%
  Hemorrhage (OD541 nm): 5.372 ± 2.06 OD541 nm
[3]; 100 μg/site intratracheal
  % inhibition of elastase-induced lung hemorrhage: 100.0%
  Hemorrhage (OD541 nm): 0.6476 ± 0.129 OD541 nm
[3]
  ED50 elastase-induced lung hemorrhage: 4.5 μg/site

## CC(C)C(NC(=O)CN(C(=O)[C@@H](NC(=O)c1ccc(C(=O)NCC(=O)O)cc1)C(C)C)C1Cc2ccccc2C1)C(=O)C(F)(F)F (mixture of isomers) [Example 27, 3(RS)-[[4-(carboxymethylaminocarbonyl)phenylcarbonyl]-L-valyl-N-(2-indanyl)glycyl]-amino-1,1,1-trifluoro-4-methyl-2-oxopentane]
[1]
  IC50: 2400 nM
[2]; [9]
  IC50: 16000 nM
[3]; 1 μg/site intratracheal
  % inhibition of elastase-induced lung hemorrhage: 24.8%
  Hemorrhage (OD541 nm): 10.68 ± 1.25 OD541 nm
[3]; 10 μg/site intratracheal
  % inhibition of elastase-induced lung hemorrhage: 66.9%
  Hemorrhage (OD541 nm): 4.878 ± 0.917 OD541 nm
[3]; 100 μg/site intratracheal
  % inhibition of elastase-induced lung hemorrhage: 99.8%
  Hemorrhage (OD541 nm): 0.3451 ± 0.084 OD541 nm
[3]
  ED50 elastase-induced lung hemorrhage: 3.7 μg/site

## CC(C)C(NC(=O)[C@@H]1CCCN1C(=O)[C@@H](NC(=O)c1ccc(C(=O)NCCCC(=O)O)cc1)C(C)C)C(=O)C(F)(F)F (mixture of isomers) [Example 20, 3(RS)-[[4-[(3-carboxypropyl)aminocarbonyl]phenylcarbonyl]-L-valyl-L-prolyl]amino-1,1,1-trifluoro-4-methyl-2-oxopentane]
[1]
  IC50: 890 nM
[2]; [9]
  IC50: 2400 nM
[3]; 1 μg/site intratracheal
  % inhibition of elastase-induced lung hemorrhage: 16.1%
  Hemorrhage (OD541 nm): 10.94 ± 1.35 OD541 nm
[3]; 10 μg/site intratracheal
  % inhibition of elastase-induced lung hemorrhage: 86.0%
  Hemorrhage (OD541 nm): 2.522 ± 0.803 OD541 nm
[3]; 100 μg/site intratracheal
  % inhibition of elastase-induced lung hemorrhage: 104.7%
  Hemorrhage (OD541 nm): 0.2680 ± 0.050 OD541 nm
[3]
  ED50 elastase-induced lung hemorrhage: 2.5 μg/site
